Data from ChEMBL document CHEMBL4419120, “Bitter taste receptors” (2015).
Calls of active or inactive are those of the source.

Legend:
[1] = biological target: T1, Taste receptor type 2 member 16 (Homo sapiens) (UniProt Q9NYV7); experiment: Activity at human TAS2R16 expressed in HEK293/15 cells assessed as threshold concentration of compound at which point receptor detects compounds by measuring calcium response by FLIPR assay; format: functional, cell-based
T1 sequence (whole entry): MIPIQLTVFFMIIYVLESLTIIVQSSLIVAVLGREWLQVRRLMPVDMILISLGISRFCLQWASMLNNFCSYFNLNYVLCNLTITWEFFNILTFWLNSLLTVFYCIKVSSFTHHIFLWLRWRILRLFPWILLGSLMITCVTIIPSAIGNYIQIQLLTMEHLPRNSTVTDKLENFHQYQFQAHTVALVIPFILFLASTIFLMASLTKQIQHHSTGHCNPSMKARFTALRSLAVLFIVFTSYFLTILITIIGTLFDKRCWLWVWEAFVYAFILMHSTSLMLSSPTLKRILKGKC

[2] = biological target: T2, Taste receptor type 2 member 16 (Homo sapiens, UniProt Q9NYV7); experiment: Activity at human TAS2R16 expressed in HEK293/15 cells assessed as effect on calcium response by FLIPR assay; format: functional, cell-based
T2 sequence (Q9NYV7 whole entry): T1 sequence (whole entry)

[3] = tested on: Homo sapiens; experiment: In-vivo activity at TAS2R16 in trained human taste panelists assessed as threshold concentration of compound at which point panelists detects bitterness intensity of compound in sensory panel room at 22 to 25 degC by triangle test with tap water as solvent; format: functional
[4] = biological target: T1, Taste receptor type 2 member 16 (Homo sapiens); experiment: Activity at human TAS2R16 expressed in HEK-293T-Galpha16-gustducin44 cells assessed as threshold concentration of compound at which point receptor detects compounds by measuring calcium response by FLIPR assay; format: functional, cell-based
[5] = biological target: T2, Taste receptor type 2 member 16; experiment: Activity at human TAS2R16 expressed in HEK-293T-Galpha16-gustducin44 cells assessed as effect on calcium response by FLIPR assay; format: functional, cell-based
[6] = tested on: Homo sapiens; experiment: In-vivo activity at TAS2R16 in trained human taste panelists assessed as detection of bitterness intensity of compound in sensory panel room at 22 to 25 degC by triangle test with tap water as solvent; format: functional, organism-based
[7] = biological target: T3, Taste receptor type 2 member 38 (Homo sapiens, UniProt P59533); experiment: Activity at human TAS2R38 expressed in HEK-293T-Galpha16-gustducin44 cells assessed as effect on calcium response by FLIPR assay; format: functional, cell-based
T3 sequence (P59533 whole entry): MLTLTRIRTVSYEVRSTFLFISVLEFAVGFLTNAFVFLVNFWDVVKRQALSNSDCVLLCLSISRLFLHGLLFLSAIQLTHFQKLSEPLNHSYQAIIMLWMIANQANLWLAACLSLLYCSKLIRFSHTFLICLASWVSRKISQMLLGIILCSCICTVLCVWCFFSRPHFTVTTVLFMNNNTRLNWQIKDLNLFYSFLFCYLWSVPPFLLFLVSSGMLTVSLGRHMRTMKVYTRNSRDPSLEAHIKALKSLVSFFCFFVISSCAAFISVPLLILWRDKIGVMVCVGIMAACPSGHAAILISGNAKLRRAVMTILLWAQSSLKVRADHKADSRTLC

[8] = biological target: T4, Taste receptor type 2 member 38 (Homo sapiens) (UniProt P59533); experiment: Activity at human TAS2R38 expressed in HEK-293T-Galpha16-gustducin44 cells assessed as threshold concentration of compound at which point receptor detects compounds by measuring calcium response by FLIPR assay; format: functional, cell-based
T4 sequence (whole entry): T3 sequence (P59533 whole entry)

[9] = biological target: T5, Taste receptor type 2 member 10 (Homo sapiens) (UniProt Q9NYW0); experiment: Activity at human TAS2R10 expressed in HEK-293T-Galpha16-gustducin44 cells assessed as threshold concentration of compound at which point receptor detects compounds by measuring calcium response by FLIPR assay; format: functional, cell-based
T5 sequence (whole entry): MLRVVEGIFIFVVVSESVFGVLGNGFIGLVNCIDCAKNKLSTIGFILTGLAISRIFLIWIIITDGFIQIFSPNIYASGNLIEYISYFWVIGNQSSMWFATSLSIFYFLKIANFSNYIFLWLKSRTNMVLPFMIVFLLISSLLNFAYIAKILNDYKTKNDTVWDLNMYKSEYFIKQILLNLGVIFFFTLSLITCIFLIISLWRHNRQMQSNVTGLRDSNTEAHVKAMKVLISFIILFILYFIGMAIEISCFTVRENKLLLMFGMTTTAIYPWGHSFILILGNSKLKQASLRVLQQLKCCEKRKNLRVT

[10] = biological target: T6, Taste receptor type 2 member 10 (Homo sapiens, UniProt Q9NYW0); experiment: Activity at human TAS2R10 expressed in HEK-293T-Galpha16-gustducin44 cells assessed as effect on calcium response by FLIPR assay; format: functional, cell-based
T6 sequence (Q9NYW0 whole entry): T5 sequence (whole entry)

[11] = biological target: T5, Taste receptor type 2 member 10 (Homo sapiens); experiment: Activity at human TAS2R10 expressed in HEK293/15 cells assessed as compound concentration showing threshold of activation on calcium response by FLIPR assay; format: functional, cell-based
[12] = biological target: T1, Taste receptor type 2 member 16 (Homo sapiens); experiment: Activity at human TAS2R16 expressed in HEK293/15 cells assessed as effect on calcium response up to 100 mM by FLIPR assay; format: functional, cell-based
[13] = biological target: T1, Taste receptor type 2 member 16 (Homo sapiens); experiment: Activity at human TAS2R16 expressed in HEK293/15 cells assessed as threshold concentration of compound at which point receptor detects compounds by measuring calcium response up to 100 mM by FLIPR assay; format: functional, cell-based
[14] = biological target: T4, Taste receptor type 2 member 38 (Homo sapiens); experiment: Activity at human TAS2R38 expressed in HEK-293T-Galpha16-gustducin44 cells assessed as concentration of compound which reacts with receptor by measuring calcium response by FLIPR assay; format: functional, cell-based
[15] = biological target: T7, Taste receptor type 2 member 14 (Homo sapiens) (UniProt Q9NYV8); experiment: Activity at human TAS2R14 expressed in HEK-293T-Galpha16-gustducin44 cells assessed as concentration of compound which reacts with receptor by measuring calcium response by FLIPR assay; format: functional, cell-based
T7 sequence (whole entry): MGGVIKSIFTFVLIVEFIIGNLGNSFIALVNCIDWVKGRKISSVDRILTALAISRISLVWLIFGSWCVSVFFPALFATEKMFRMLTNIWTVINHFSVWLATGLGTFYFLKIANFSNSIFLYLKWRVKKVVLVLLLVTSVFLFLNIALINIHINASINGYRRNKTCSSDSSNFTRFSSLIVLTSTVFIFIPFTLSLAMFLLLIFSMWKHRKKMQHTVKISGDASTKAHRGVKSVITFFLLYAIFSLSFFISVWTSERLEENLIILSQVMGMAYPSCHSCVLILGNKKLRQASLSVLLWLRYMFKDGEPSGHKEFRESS

OCc1ccccc1O[C@@H]1O[C@H](CO)[C@@H](O)[C@H](O)[C@H]1O [SALICIN]
Activity [1]: 0.07 mM
EC50 [2]: 1400 µM
Activity [3]: 0.2 mM
Activity [4]: 0.07 mM
EC50 [5]: 1400 µM
EC50 [6]: 1100 µM

CN(C)C=S
EC50 [7]: 55 µM
Activity [8]: 10 µM

CCNC(N)=S
EC50 [7]: 260 µM

OC[C@H]1O[C@@H](Oc2ccc3ccccc3c2)[C@H](O)[C@@H](O)[C@@H]1O
Activity [1]: 0.4 mM
EC50 [2]: 1000 µM
Activity [3]: 0.2 mM
Activity [4]: 0.4 mM
EC50 [5]: 1000 µM
EC50 [6]: 1400 µM

CCCc1cc(=O)[nH]c(=S)[nH]1 [PROPYLTHIOURACIL]
EC50 [7]: 2 µM
Activity [8]: 0.3 µM

COc1cc2c(cc1OC)[C@@]13CCN4CC5=CCO[C@H]6CC(=O)N2[C@H]1[C@H]6[C@H]5C[C@H]43 [BRUCINE]
Activity [9]: 0.01 mM
EC50 [10]: 60 µM
Activity [11]: Active

S=C1NCCN1
Activity [8]: 10 µM

O=Cc1ccccc1O[C@@H]1O[C@H](CO)[C@@H](O)[C@H](O)[C@H]1O [HELICIN]
Activity [1]: 0.3 mM
EC50 [2]: 2300 µM
Activity [3]: 0.4 mM
Activity [4]: 0.3 mM
EC50 [5]: 2300 µM
EC50 [6]: 2200 µM

O=[N+]([O-])c1ccc(S[C@@H]2O[C@H](CO)[C@@H](O)[C@H](O)[C@H]2O)cc1
Activity [4]: 1 to 5 mM

OC[C@H]1O[C@@H](Oc2ccccc2)[C@H](O)[C@@H](O)[C@H]1O
Activity [12]: inactive
Activity [3]: 40 mM
Activity [13]: inactive

CC(=N)S
Activity [8]: 100 µM

O=c1ccc2cc(O[C@@H]3O[C@H](CO)[C@@H](O)[C@H](O)[C@H]3O)c(O)cc2o1 [ESCULIN]
Activity [1]: 4 mM
Activity [3]: 4 mM
Activity [4]: 4 mM

CNC(N)=S
EC50 [7]: 600 to 800 µM
Activity [8]: 100 µM

CC(=S)Nc1ccccc1
EC50 [7]: 18 µM
Activity [8]: 3 µM

O=C1C[C@@H]2OCC=C3CN4CC[C@]56c7ccccc7N1[C@H]5[C@H]2[C@H]3C[C@H]46 [STRYCHNINE]
Activity [9]: 0.003 mM
EC50 [10]: 40 µM
Activity [11]: 0.1 µM

CC(=O)NC(N)=S
EC50 [7]: 15 µM
Activity [8]: 2 µM

O=c1cc[nH]c(=S)[nH]1 [THIOURACIL]
EC50 [7]: 2000 µM
Activity [8]: 300 µM

CC[N+](CC)(CC(=O)Nc1c(C)cccc1C)Cc1ccccc1 [DENATONIUM BENZOATE]
Activity [9]: 0.003 mM
EC50 [10]: 70 µM

CC/N=C(/N)S
Activity [8]: 30 µM

OC[C@H]1O[C@@H](Oc2ccc(O)cc2)[C@H](O)[C@@H](O)[C@@H]1O [ARBUTIN]
Activity [1]: 0.5 mM
EC50 [2]: 5800 µM
Activity [3]: 0.9 mM
Activity [4]: 0.5 mM
EC50 [5]: 5800 µM
EC50 [6]: 5400 µM

O=C1CC(=O)NC(=S)N1
Activity [14]: 10 mM

O=c1cc(-c2ccccc2)[nH]c(=S)[nH]1
EC50 [7]: 0.5 µM
Activity [8]: 0.15 µM

OC[C@H]1O[C@H](Oc2ccccc2)[C@H](O)[C@@H](O)[C@@H]1O
Activity [12]: inactive
Activity [3]: 9 mM
EC50 [6]: 50000 µM
Activity [13]: inactive

OC[C@H]1O[C@@H](Oc2ccccc2)[C@H](O)[C@@H](O)[C@@H]1O
Activity [1]: 0.07 mM
EC50 [2]: 1100 µM
Activity [3]: 0.1 mM
Activity [4]: 0.07 mM
EC50 [5]: 1100 µM
EC50 [6]: 700 µM

N#C[C@H](O[C@@H]1O[C@H](CO[C@@H]2O[C@H](CO)[C@@H](O)[C@H](O)[C@H]2O)[C@@H](O)[C@H](O)[C@H]1O)c1ccccc1 [AMYGDALIN]
Activity [1]: 2.3 mM
EC50 [2]: 20000 µM
Activity [4]: 2.3 mM
EC50 [5]: 20000 µM

CN(C)C(=S)N(C)C
EC50 [7]: 100 µM
Activity [8]: 10 to 30 µM

O=[N+]([O-])c1ccc(O[C@@H]2O[C@H](CO)[C@@H](O)[C@H](O)[C@@H]2O)cc1
Activity [4]: 1 to 3 mM

CO[C@@H]1O[C@H](CO)[C@@H](O)[C@H](O)[C@H]1O
Activity [1]: 15 mM
Activity [3]: 32 mM
Activity [4]: 15 mM
EC50 [5]: 32000 µM

O=[N+]([O-])c1ccccc1O[C@@H]1O[C@H](CO)[C@@H](O)[C@H](O)[C@H]1O
Activity [1]: 1.5 mM
Activity [4]: 0.3 to 1 mM

N[C@@H](Cc1ccc(O)cc1)C(=O)O
Activity [15]: 1 mM

O=[N+]([O-])c1ccc(O[C@@H]2O[C@H](CO)[C@@H](O)[C@H](O)[C@H]2O)cc1
Activity [4]: 1 to 3 mM

NC(=S)Nc1ccccc1 [PHENYLTHIOUREA]
EC50 [7]: 2 µM
Activity [8]: 0.3 µM
